One compound from ChEMBL document CHEMBL5252515, “Discovery of 6-Amino-2-{[(1S)-1-methylbutyl]oxy}-9-[5-(1-piperidinyl)pentyl]-7,9-dihydro-8H-purin-8-one (GSK2245035), a Highly Potent and Selective Intranasal Toll-Like Receptor 7 Agonist for the Treatment of Asthma” (J Med Chem, 2016) can be followed below.

Data set [1] deals with T1, Toll-like receptor 7 (Homo sapiens, UniProt Q9NYK1).
T1 sequence (Q9NYK1 whole entry): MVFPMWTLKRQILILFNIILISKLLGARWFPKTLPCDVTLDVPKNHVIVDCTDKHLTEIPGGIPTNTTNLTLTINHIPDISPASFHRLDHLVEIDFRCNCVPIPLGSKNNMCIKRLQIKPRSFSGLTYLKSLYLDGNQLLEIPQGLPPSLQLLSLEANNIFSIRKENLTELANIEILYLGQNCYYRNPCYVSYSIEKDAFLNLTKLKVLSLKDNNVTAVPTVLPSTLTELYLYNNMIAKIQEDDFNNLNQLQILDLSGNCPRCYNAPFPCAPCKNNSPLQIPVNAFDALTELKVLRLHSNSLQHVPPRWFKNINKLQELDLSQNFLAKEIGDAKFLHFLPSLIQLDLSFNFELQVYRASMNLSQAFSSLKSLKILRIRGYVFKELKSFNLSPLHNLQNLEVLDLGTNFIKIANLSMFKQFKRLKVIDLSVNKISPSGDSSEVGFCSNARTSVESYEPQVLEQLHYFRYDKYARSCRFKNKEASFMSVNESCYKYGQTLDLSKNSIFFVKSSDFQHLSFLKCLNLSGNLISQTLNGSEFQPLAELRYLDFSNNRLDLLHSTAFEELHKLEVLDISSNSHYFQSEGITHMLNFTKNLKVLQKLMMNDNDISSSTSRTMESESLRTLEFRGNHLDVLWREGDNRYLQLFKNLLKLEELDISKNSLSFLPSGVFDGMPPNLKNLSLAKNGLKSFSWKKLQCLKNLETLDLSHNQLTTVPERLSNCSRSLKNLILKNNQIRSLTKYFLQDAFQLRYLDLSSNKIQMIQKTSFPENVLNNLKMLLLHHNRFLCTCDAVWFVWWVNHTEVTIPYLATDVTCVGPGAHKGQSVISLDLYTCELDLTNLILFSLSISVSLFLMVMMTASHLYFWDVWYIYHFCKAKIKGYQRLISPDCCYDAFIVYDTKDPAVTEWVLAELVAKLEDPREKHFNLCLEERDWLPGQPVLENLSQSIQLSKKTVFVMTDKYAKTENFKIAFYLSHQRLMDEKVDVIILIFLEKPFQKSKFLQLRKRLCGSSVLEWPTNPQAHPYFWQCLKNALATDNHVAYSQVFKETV
As to the kind of experiment: Agonist activity at TLR7 in human PBMC assessed as TNF-alpha production after 24 hrs by electrochemiluminescence assay. The class given is cell-based.

The target of data set [2] is T1, Toll-like receptor 7. As to the kind of experiment: Agonist activity at TLR7 in human whole blood assessed as induction of IFN-gamma production after 20 hrs by electrochemiluminescence assay. The class given is tissue-based.
In data set [3] the test system is PBMC. As to the kind of experiment: Immunomodulatory activity in human PBMC assessed as reduction in timothy grass induced IL-13 level after 6 days. The class given is functional, cell-based. The conditions noted are these: dose 0.01-10000 nM, time 6.0 day.
For data set [4], the system named is Mus musculus. As to the kind of experiment: Increase in IFN-alpha level in BALB/c mouse serum at 0.3 mg/kg, administered intranasally after 2 hrs by ELISA. The format is functional, organism-based. A general note: An ELISA detects its analyte on a solid surface through an enzyme-linked reagent.
Data set [5] deals with Mus musculus. Briefly: Increase in IFN-alpha level in BALB/c mouse serum at 0.3 mg/kg, administered intranasally after 6 hrs by ELISA. The class given is functional, organism-based.
Data set [6] addresses T2, Toll-like receptor 7 (Macaca fascicularis) (UniProt B3Y652).
T2 sequence (whole entry): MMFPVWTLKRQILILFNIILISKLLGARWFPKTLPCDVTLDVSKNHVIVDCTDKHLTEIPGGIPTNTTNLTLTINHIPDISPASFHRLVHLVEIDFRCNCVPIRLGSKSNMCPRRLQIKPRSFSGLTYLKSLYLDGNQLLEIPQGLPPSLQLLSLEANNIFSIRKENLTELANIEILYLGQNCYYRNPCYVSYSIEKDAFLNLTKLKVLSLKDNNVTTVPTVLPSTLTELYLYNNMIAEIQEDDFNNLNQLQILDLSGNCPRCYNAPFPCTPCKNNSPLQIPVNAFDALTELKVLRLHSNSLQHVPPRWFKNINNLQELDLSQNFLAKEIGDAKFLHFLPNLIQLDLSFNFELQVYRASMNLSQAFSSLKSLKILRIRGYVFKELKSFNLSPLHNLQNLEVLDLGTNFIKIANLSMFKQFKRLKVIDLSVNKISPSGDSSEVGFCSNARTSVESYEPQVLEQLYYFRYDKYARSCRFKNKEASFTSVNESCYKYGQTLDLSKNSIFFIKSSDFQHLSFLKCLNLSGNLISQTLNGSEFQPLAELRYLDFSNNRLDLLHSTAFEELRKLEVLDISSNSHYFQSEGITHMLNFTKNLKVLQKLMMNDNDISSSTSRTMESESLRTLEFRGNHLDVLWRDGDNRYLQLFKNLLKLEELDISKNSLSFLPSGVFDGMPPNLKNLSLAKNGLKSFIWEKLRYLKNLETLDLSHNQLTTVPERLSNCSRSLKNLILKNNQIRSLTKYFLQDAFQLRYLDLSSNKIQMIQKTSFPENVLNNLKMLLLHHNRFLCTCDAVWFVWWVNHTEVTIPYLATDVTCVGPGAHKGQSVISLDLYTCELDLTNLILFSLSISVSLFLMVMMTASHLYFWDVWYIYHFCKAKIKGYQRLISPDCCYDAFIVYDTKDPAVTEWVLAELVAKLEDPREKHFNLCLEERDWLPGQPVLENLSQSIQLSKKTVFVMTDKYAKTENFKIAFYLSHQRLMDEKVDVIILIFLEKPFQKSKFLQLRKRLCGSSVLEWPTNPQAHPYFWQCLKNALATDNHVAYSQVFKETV
As to the kind of experiment: In vivo target occupancy at TLR7 in cynomolgus monkey assessed as fold increase in CCL8 mRNA expression in nasal scrape at 3 ng/kg administered intranasally incubated for 24 hrs by TaqMan analysis (reference value: 1). The format is functional.

Data set [7] concerns the target T2, Toll-like receptor 7 (Macaca fascicularis). Briefly: In vivo target occupancy at TLR7 in cynomolgus monkey assessed as fold increase in OAS1 mRNA expression in nasal scrape at 3 ng/kg administered intranasally incubated for 24 hrs by TaqMan analysis (reference value: 1.2). The format is functional. On the technique in general: In qPCR the cycle at which signal appears reflects the starting amount.

Data set [8] in a line: Toxicity in female rat assessed as NOAEL after 8 weeks. The conditions noted are these: in vivo.
The test system of data set [9] is PBMC. As to the kind of experiment: Immunomodulatory activity in human PBMC assessed as IL-10 production in presence of allergen timothy grass. The format is functional, cell-based.

Structures are written as SMILES. Activity calls are given as the source filed them. No cut-off for these calls is given here.

Consider `CCC[C@H](C)Oc1nc(N)c2[nH]c(=O)n(CCCCCN3CCCCC3)c2n1` [GSK-2245035], for which the EC50 on Toll-like receptor 7 [1] is 316 nM; at Toll-like receptor 7 [2] it was 1260 nM. Also, the Activity result in the data set with PBMC [3] was “Dose-Dependent Effect”. Further, the result in the data set with Mus musculus [4] and in the data set on PBMC [9] was Active. Also, the outcome in the data set with Mus musculus [5] was inactive. Further, the results for the fold change (FC) in [6] and in data set [7] were 3970 and 38.9, respectively. Moreover, the no-observed-adverse-effect level (NOAEL) at 1344 h in data set [8] stood at 0.698 mg/kg.

By EC50 is commonly meant the midpoint of the concentration-response curve. By NOAEL is commonly meant the highest dose or exposure tested at which no adverse effect was seen.
